Experimental data from article PMC3691600, “Conversion of fatty aldehydes into alk (a/e)nes by in vitro reconstituted cyanobacterial aldehyde-deformylating oxygenase with the cognate electron transfer system” (Biotechnology for Biofuels, 2013).

Biological target: FNR (SynPcc7942_0978) (Synechococcus elongatus, UniProt Q31PL1)
Assay: UV/vis absorption spectrum of purified enzyme
Type: binding
Settings: noncovalently bound; as purified; flavin identity inferred from spectrum and FNR homology

FNR (SynPcc7942_0978), sequence (Q31PL1 1-403): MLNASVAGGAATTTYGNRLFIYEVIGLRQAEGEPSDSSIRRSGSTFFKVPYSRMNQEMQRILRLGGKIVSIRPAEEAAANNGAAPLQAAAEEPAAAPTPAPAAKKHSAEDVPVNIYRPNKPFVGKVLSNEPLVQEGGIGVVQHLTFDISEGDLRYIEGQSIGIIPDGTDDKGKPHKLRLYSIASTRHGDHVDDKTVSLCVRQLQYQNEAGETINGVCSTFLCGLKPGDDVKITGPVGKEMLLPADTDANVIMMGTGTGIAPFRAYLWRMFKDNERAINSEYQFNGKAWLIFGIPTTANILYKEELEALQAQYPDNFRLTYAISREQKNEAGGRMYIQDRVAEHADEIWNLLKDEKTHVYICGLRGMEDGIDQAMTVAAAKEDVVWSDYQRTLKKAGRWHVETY

## Cc1cc2nc3c(=O)[nH]c(=O)nc-3n(C[C@H](O)[C@H](O)[C@H](O)COP(=O)(O)OP(=O)(O)OC[C@H]3O[C@@H](n4cnc5c(N)ncnc54)[C@H](O)[C@@H]3O)c2cc1C [FAD]
  UV/vis absorption spectrum of purified enzyme: demonstrating that FNR is certainly a flavoprotein
